Data taken from patent US20220257531A1, “COMPOSITIONS AND METHODS FOR TREATMENT OF A FIBROTIC DISEASE” (Avexxin AS, priority 2017, published 2022).

Test system: BLM-induced pulmonary fibrosis in C57BL/6J mice
Experiment: Bleomycin (BLM)-induced pulmonary fibrosis model, Example 4
Format: in vivo
Source text: The bleomycin model of idiopathic fibrosis (IPF) is a well-characterized and currently an extensively used animal model of Interstitial lung disease (ILD) due to its: i) ability to reproduce many aspects of the disease, ii) good reproducibility, and iii) ease of induction. Overall, studies using the bleomycin model have identified many of the cellular and molecular mechanisms now recognized as being important in pathogenesis of IPF, as well as novel therapies for ILDs. The model is based on intratracheal administration of bleomycin in mice that results in alveolar epithelial damage, alveolar inflammation and fibrosis within a period of 21 days. Consequently, the model allows therapeutic testing of novel agents within a reasonably short period of time (Liu T eta al, Methods Mol Biol. 2017;1627:27-42).
Test Article & Formulations Compound B (Synthetica A/S, Norway) was formulated for subcutaneous administration in a nano-emulsion containing 2 mg/ml Compound B, 2 mg/ml MCT oil (Lipoid), 2 mg/ml Polysorbate 80 (Fluka) and sodium citrate buffer 10 mM (pH 7). The final solution was sterilized by filtration and saturated with Argon 5.0 AGA prior to aliquoting in 10 ml tubes stored at −20° C. till further use. A separate Polysorbate 80- and sodium citrate buffer-based vehicle solution without Compound B and MCT oil was also prepared, sterilized, aliquoted and stored, serving as the subcutaneous vehicle control used in the UUO animal study. Nintedanib (approved and commercialized for IPF under the brand names Ofev/Vargatef) was used as a positive control. The compound was purchased from Chemexpress Co., Ltd. (China) and suspended in 1% methylcellulose.
Six-week-old female C57BL/6J mice were obtained from Japan SLC, Inc. (Japan). Animals were kept in an animal room facility at a temperature of 23±2° C., humidity of 45±10%, under a 12-hour light and dark cycle (light from 8:00 to 20:00). A high pressure of 20±4 Pa was kept in the experimental room to prevent contamination. The animals were housed in TPX cages (CLEA Japan; maximum of 6 mice per cage) and fed with a sterilized normal diet (CE-2; CLEA Japan, Japan) provided ad libitum, being placed in a metal lid on the top of the cage. Sterilized Paper-Clean (Japan SLC) was used for bedding and was replaced once a week. Pure water was provided ad libitum from a water bottle equipped with a rubber stopper and a sipper tube. […]
The viability, clinical signs and behavior were monitored every day. Body weight was recorded daily after the day of starting the BLM administration (Day 0). […]
To quantify lung hydroxyproline content, frozen whole left lung samples were processed by an acid hydrolysis method as follows. […]

## COC(=O)c1ccc2c(c1)NC(=O)/C2=C(\Nc1ccc(N(C)C(=O)CN2CCN(C)CC2)cc1)c1ccccc1 [Nintedanib]
100 mg/kg per os daily Day 7-20, Day 21, % of baseline Day 0, mean ± SD
  Body weight changes at sacrifice: 103 ± 5%
100 mg/kg per os daily Day 7-20, Day 21, mean ± SD
  Lung Hydroxyproline: 50.6 ± 14.5 μg/ml left lung
Masson's Trichrome, 100 mg/kg per os daily Day 7-20, mean ± SD
  Ashcroft score: 1.6 ± 1.0
Per treatment group of 12, treatment Day 7-20
  mice found dead before reaching Day 21: three out of 12
